Patent US6344460B1, “Propynyl uracils” (Lonza Inc., priority 2000, dated 2002)

Assays:
[1] = test system: Trametes versicolor (a white rot; ATCC 42462); settings: T. versicolor; for IC50 (ppm): minimum concentration for 50% zone of inhibition, 9 days contact
Procedure: (§1) Prod J. 45(1):86-9 (1995), was performed to determine the minimum concentration of uracil necessary to achieve a 50% zone of inhibition over 9 days of contact time.

[2] = test system: Gloephyllium trabeum (a brown rot, ATCC 11539); settings: G. trabeum; for IC50 (ppm): minimum concentration for 50% zone of inhibition, 9 days contact
Procedure: as §1

[3] = test system: Aspergillus niger ATCC #16404; experiment: Minimum inhibitory concentration by zone of inhibition assay; type: cell-based; settings: 5 days contact, Day-Engley neutralizing media
Text: A. niger ATCC #16404 was contacted with each sulfone for 5 days in a Day-Engley neutralizing media.

[4] = test system: Postia placenta (a brown rot, ATCC 11538); settings: P. placenta; for IC50 (ppm): minimum concentration for 50% zone of inhibition, 9 days contact
Procedure: as §1

[5] = test system: Chaetomium globosum (a soft rot, ATCC 6205); settings: C. globosum; minimum concentration for 50% zone of inhibition, 9 days contact
Procedure: as §1

## O=c1c(Cl)cn(CC#CI)c(=O)n1CC#CI
[1]
  concentration at which a total kill was observed: no more than 50 ppm
  IC50 (ppm): 6.12 ppm
[2]
  concentration at which a total kill was observed: no more than 50 ppm
  IC50 (ppm): 3.22 ppm
[3]
  5 Day Minimum Inhibitory Concentration Aspergillus niger: 10 to 30 mg/L
[4]
  concentration at which a total kill was observed: no more than 50 ppm
  IC50 (ppm): <5.0 ppm
[5]
  IC50 (ppm): 3.22 ppm

## Cc1cn(CC#CI)c(=O)n(CC#CI)c1=O [1N,3N-Bis(3-iodo-2-propynyl)-5-methyluracil]
[3]
  5 Day Minimum Inhibitory Concentration Aspergillus niger: 10 to 30 mg/L

## O=c1ccn(CC#CI)c(=O)n1CC#CI [1N, 3N-bis(3-iodo-2-propynyl)-uracil, 1N,3N-Bis(3-iodo-2-propynyl)-uracil]
[3]
  5 Day Minimum Inhibitory Concentration Aspergillus niger: 3 to 10 mg/L

## O=c1c(F)cn(CC#CI)c(=O)n1-c1ccco1 [1N-(3-iodo-2-propynyl)-3N-(2-furanyl)-5-fluorouracil]
[3]
  5 Day Minimum Inhibitory Concentration Aspergillus niger: 30 to 100 mg/L

## O=c1ccn(CC#CI)c(=O)n1C1O[C@H](CO)[C@@H](O)[C@H]1O (stereo partly drawn) [1N-(3-iodo-2-propynyl)-3N-(D-1-ribose)-uracil]
[3]
  5 Day Minimum Inhibitory Concentration Aspergillus niger: 100 to 300 mg/L

## O=c1[nH]cc([N+](=O)[O-])c(=O)n1CC#CI [3N-(3-iodo-2-propynyl)-5-nitrouracil]
[3]
  5 Day Minimum Inhibitory Concentration Aspergillus niger: 30 to 100 mg/L

## CCCCCCCCCC[N+](C)(C)CCCCCCCCCC.[Cl-] [didecydimethyl ammonium chloride, didecyldimethyl ammonium chloride, reference compound]
[1]
  IC50 (ppm): 53.9 ppm
[2]
  IC50 (ppm): 6.45 ppm
[4]
  IC50 (ppm): 5.6 ppm
[5]
  IC50 (ppm): 62.9 ppm
